PubChem BioAssay (NCI)
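The compound was tested at five concentrations on cells cultured in 96-well plates, with a 48-hour exposure period. Definition used: TGI = concentration required for complete inhibition of growth.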

Experiments:
Assay in all cases: DTP human tumour cell line panel, 48 h
[1] = test system: HCT-15 colon
[2] = test system: UACC-62 melanoma
[3] = test system: SK-MEL-5 melanoma
[4] = test system: MDA-N
[5] = test system: MCF7 breast
[6] = test system: OVCAR-8 ovarian
[7] = test system: SNB-75 CNS
[8] = test system: MALME-3M melanoma
[9] = test system: BT-549 breast
[10] = test system: M14 melanoma
[11] = test system: ACHN renal
[12] = test system: OVCAR-4 ovarian
[13] = test system: KM12 colon
[14] = test system: 786-0 renal
[15] = test system: TK-10 renal
[16] = test system: PC-3 prostate
[17] = test system: A549 NSCLC
[18] = test system: MDA-MB-435

| Compound | TGI [1] | TGI [2] | TGI [3] | TGI [4] | TGI [5] | TGI [6] | TGI [7] | TGI [8] | TGI [9] | TGI [10] | TGI [11] | TGI [12] | TGI [13] | TGI [14] | TGI [15] | TGI [16] | TGI [17] | TGI [18] |
| --- | --- | --- | --- | --- | --- | --- | --- | --- | --- | --- | --- | --- | --- | --- | --- | --- | --- | --- |
| O=C(O)c1cccc(Nc2c(C(=O)O)cccc2[N+](=O)[O-])c1 | > 100 µM | > 100 µM | > 100 µM | > 100 µM | > 100 µM | > 100 µM | > 100 µM | > 100 µM | > 100 µM | > 100 µM | > 100 µM | > 100 µM | > 100 µM | > 100 µM | > 100 µM | > 100 µM | > 100 µM |  |
| COc1cc(C2C3=C(COC3=O)OC(C)(C)Oc3cc4c(cc32)OCO4)cc(OC)c1O (stereo not drawn) | > 100 µM |  | 19.4 µM | 0.423 µM | > 100 µM | > 100 µM |  | > 100 µM | > 100 µM | > 100 µM | > 100 µM | > 100 µM | > 44.5 µM | > 100 µM | > 100 µM | > 100 µM | > 76.8 µM | 0.645 µM |
| Cc1cccc(N/C(=C(/C(Cl)=C(Cl)Cl)[N+](=O)[O-])n2nnc3ccccc32)c1 | 42.3 µM | 37 µM |  | 64.9 µM | 50 µM | 31.1 µM |  | 28.1 µM | 36.5 µM | 47.5 µM | 63.1 µM | 39.5 µM | 29.3 µM | 35.7 µM |  | 30.1 µM | 36 µM | 38.8 µM |
| OC1=C2c3ccccc3NC2Oc2cc(F)ccc21 (stereo not drawn) | 37.3 µM | 34.7 µM | 28.2 µM | 31.4 µM | > 100 µM | > 100 µM |  | 48.5 µM | 48.2 µM | 31.8 µM | 46.7 µM | 50.6 µM | 31.2 µM | 29.9 µM | 47.1 µM | 41.4 µM | 52.7 µM | 33.9 µM |
| CCC(C)C(=O)OC1C(=O)OC2CC3C(C)=CC(=O)C(O)C3(C)C3C4(O)OCC23C1C(C)C4O (stereo not drawn) | 0.944 µM | 0.188 µM | 0.025 µM | 0.232 µM | > 100 µM | 0.0634 µM | 0.113 µM | < 0.021 µM | 0.094 µM | 0.0481 µM | 0.257 µM | 0.262 µM | 0.133 µM |  | 0.845 µM | 0.481 µM | 2.38 µM | 0.0723 µM |
| CC(=O)OC1=NN=C2COC(c3ccccc3OC(C)=O)=NN2C1 | > 50 µM | > 50 µM | 18.1 µM | > 50 µM | > 50 µM |  | > 50 µM | > 50 µM | > 50 µM | > 50 µM | > 50 µM | > 50 µM | > 50 µM | > 50 µM | > 50 µM | > 50 µM | > 50 µM | > 50 µM |
| CN1CCC23c4c5ccc(Oc6nnnn6-c6ccccc6)c4OC2c2[nH]c4ccccc4c2CC3(O)C1C5 (stereo not drawn) | 6.36 µM | 3.52 µM |  | 3.26 µM | 5.12 µM | 9.6 µM | 7.66 µM | 3.11 µM | 36.7 µM | 3.38 µM | 3.52 µM | 7.53 µM | 7.68 µM | 3.33 µM | 3.35 µM | 15 µM | 13.1 µM | 8.41 µM |
| CC(C)(C)c1cc(S(=O)(=O)O)c2oc(-c3ccccc3)cc(=O)c2c1 | > 100 µM |  | > 100 µM | > 100 µM | > 100 µM | > 100 µM | > 100 µM | > 100 µM | > 100 µM |  | > 100 µM |  | > 100 µM | > 100 µM | > 100 µM | > 100 µM | > 100 µM | > 100 µM |
| COc1ccc(CC2Cc3ccccc3CCN2)cc1OC (stereo not drawn) | > 50 µM | > 50 µM |  | > 50 µM | > 50 µM | > 50 µM | > 50 µM | > 50 µM | > 50 µM | > 50 µM |  | > 50 µM | > 50 µM | > 50 µM |  | > 50 µM | > 50 µM | > 50 µM |
| CC(=O)NC1C(OCc2ccccc2)OC(CO)C(O)C1OC(C)C(=O)NC(C(=O)NC(CCC(=O)NCCCC(=O)Nc1ccc2c(c1)CN1C(=O)c3ccccc3C1=N2)C(N)=O)C(C)C (stereo not drawn) | > 100 µM | > 100 µM | > 100 µM | > 100 µM | > 100 µM |  | > 100 µM | > 100 µM | > 100 µM | > 100 µM | > 100 µM | > 100 µM | > 100 µM | > 100 µM | > 100 µM | > 100 µM | > 100 µM | > 100 µM |
